27 molecules from patent publication US9573957B2 (Boehringer Ingelheim International GmbH, priority 2013, dated 2017) can be followed below.

One assay addresses human LTA4 hydrolase (Homo sapiens (Human), UniProt P09960). Put plainly: LTA4H Enzyme assay (peptidase, Arg-AMC cleavage). Format: biochemical. The following applies: LTA4H Enzyme 1 nM, Arg-AMC substrate 50 μM, room temperature 1 h, fluorescence. Here is the method:
The compounds of the invention are assessed for the ability to interact with human LTA4 hydrolase in an enzymatic assay that measures the ability of the enzyme to cleave the peptide bond of arginyl-aminomethylcoumarin (Arg-AMC). LTA4H Enzyme (1 nM final), Arg-AMC substrate (50 μM final), and compound are combined in a reaction buffer (50 mM Tris-HCl (pH 7.5), 100 mM KCl, 0.5% bovine serum albumin) at room temperature for 1 h. The formation of product is assessed by measuring the fluorescence of aminomethylcoumarin product (excitation wavelength 380 nm/emission wavelength 460 nm).

Assay [1] deals with synthesis of LTB4 in human whole blood. Put plainly: LTB4 production inhibition assay in human whole blood (HWB). Format: cell-based. The following applies: heparinized human whole blood, 15 min at 37° C., Calcimycin 20 μM 30 min, plasma LTB4 by HTRF. Here is the method:
The compounds of the invention are additionally tested in a human whole blood (HWB) assay to determine their ability to inhibit the synthesis of LTB4 in a cellular system. Compounds are combined with heparinized human whole blood and incubated for 15 minutes at 37° C. Calcimycin (20 μM final, prepared in phosphate-buffered saline, pH 7.4) is then added and the mixture is incubated for another 30 minutes at 37° C. The samples are centrifuged for 5 min at low speed (1500×g) and the plasma layer is removed. Plasma LTB4 concentrations are then measured using an antibody-based homogenous time-resolved fluorescence method (CisBio, Bedford, Mass.).
In general terms: Time-resolved FRET reads energy transfer from a long-lived donor to a nearby acceptor.

Chain of human LTA4 hydrolase (P09960 whole entry): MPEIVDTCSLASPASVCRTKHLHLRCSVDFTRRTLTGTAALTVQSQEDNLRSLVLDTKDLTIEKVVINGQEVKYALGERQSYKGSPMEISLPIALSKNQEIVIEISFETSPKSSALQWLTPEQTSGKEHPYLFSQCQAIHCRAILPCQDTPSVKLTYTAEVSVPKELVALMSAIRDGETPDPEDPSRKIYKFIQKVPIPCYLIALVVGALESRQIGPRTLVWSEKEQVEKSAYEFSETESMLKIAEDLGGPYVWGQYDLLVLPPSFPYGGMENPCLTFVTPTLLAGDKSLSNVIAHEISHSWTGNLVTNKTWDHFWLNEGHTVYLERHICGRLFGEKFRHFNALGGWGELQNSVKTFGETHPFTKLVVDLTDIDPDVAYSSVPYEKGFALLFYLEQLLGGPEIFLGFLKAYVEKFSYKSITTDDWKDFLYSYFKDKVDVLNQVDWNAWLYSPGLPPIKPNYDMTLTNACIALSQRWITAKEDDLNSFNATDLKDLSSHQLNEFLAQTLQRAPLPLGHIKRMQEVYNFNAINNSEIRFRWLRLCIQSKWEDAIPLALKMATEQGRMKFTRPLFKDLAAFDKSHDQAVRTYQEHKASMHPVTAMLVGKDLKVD

What is called IC50 is the point on the concentration scale where inhibition reaches its midpoint. Take `O=C(CO)N1CCN(Cc2ccc3cc(Oc4ncc(-c5ccn[nH]5)cn4)ccc3c2)CC1` [Example 48, 2-Hydroxy-1-(4-{6-[5-(2H-pyrazol-3-yl)-pyrimidin-2-yloxy]-naphthalen-2-ylmethyl}-piperazin-1-yl)-ethanone]: the values for the IC50 (at human LTA4 hydrolase; in assay [1]) were 2.9 nM and 610 nM, respectively.
`O=C(N1CCN(CCC2COc3cc(Oc4ccc(-c5ccn[nH]5)cn4)ccc32)CC1)C1(O)CC1` (stereo not drawn) [Example 90, (1-Hydroxy-cyclopropyl)-[4-(2-{6-[5-(2H-pyrazol-3-yl)-pyridin-2-yloxy]-2,3-dihydro-benzofuran-3-yl}-ethyl)-piperazin-1-yl]-methanone]: the IC50 against human LTA4 hydrolase turned out to be 1.5 nM; in assay [1], 640 nM.
On the same counts, the results for `CC(C)(O)C(=O)N1CCN(Cc2ccc3cc(Oc4ncc(-c5ccn[nH]5)cn4)ccc3c2)CC1` [Example 39, 2-Hydroxy-2-methyl-1-(4-{6-[5-(2H-pyrazol-3-yl)-pyrimidin-2-yloxy]-naphthalen-2-ylmethyl}-piperazin-1-yl)-propan-1-one] are 2.2 nM and 320 nM.
Consider `C[C@@H](O)C(=O)N1CCN(CCC2COc3cc(Oc4ccc(-c5ccn[nH]5)cn4)ccc32)CC1` (stereo partly drawn) [Example 91, (R)-2-Hydroxy-1-[4-(2-{6-[5-(2H-pyrazol-3-yl)-pyridin-2-yloxy]-2,3-dihydro-benzofuran-3-yl}-ethyl)-piperazin-1-yl]-propan-1-one], for which the IC50 against human LTA4 hydrolase was 2.2 nM; in assay [1], 930 nM.
On the same counts, the results for `C[C@H](O)C(=O)N1CCN(Cc2ccc3cc(Oc4ccc(-c5ccn[nH]5)cn4)ccc3n2)CC1` [Example 129, (S)-2-Hydroxy-1-(4-{6-[5-(2H-pyrazol-3-yl)-pyridin-2-yloxy]-quinolin-2-ylmethyl}-piperazin-1-yl)-propan-1-one] are 0.86 nM and 180 nM.
`C[C@@H](O)CC(=O)N1CCN(Cc2ccc3cc(Oc4ccc(-c5ccn[nH]5)cn4)ccc3n2)CC1` [Example 121, (R)-3-Hydroxy-1-(4-{6-[5-(2H-pyrazol-3-yl)-pyridin-2-yloxy]-quinolin-2-ylmethyl}-piperazin-1-yl)-butan-1-one]: the IC50 against human LTA4 hydrolase came to 4.9 nM; in assay [1], 620 nM.
With `O=C1[C@@H](O)CCN1C1CCN(CCC2COc3cc(Oc4ccc(-c5ccn[nH]5)cn4)ccc32)CC1` (stereo partly drawn) [Example 70, (S)-3-Hydroxy-1-[1-(2-{6-[5-(2H-pyrazol-3-yl)-pyridin-2-yloxy]-2,3-dihydro-benzofuran-3-yl}-ethyl)-piperidin-4-yl]-pyrrolidin-2-one], the IC50 against human LTA4 hydrolase came out at 1.7 nM; in assay [1], 290 nM.
On the same counts, the results for `OC1CCN(Cc2ccc3cc(Oc4ncc(-c5ccn[nH]5)cn4)ccc3c2)CC1` [Example 26, 1-{6-[5-(2H-Pyrazol-3-yl)-pyrimidin-2-yloxy]-naphthalen-2-ylmethyl}-piperidin-4-ol] are 2.3 nM and 240 nM.
With `O=C(N1CCN(Cc2ccc3cc(Oc4ccc(-c5ccn[nH]5)cn4)ccc3n2)CC1)C1(O)CCCC1` [Example 119, (1-Hydroxy-cyclopentyl)-(4-{6-[5-(2H-pyrazol-3-yl)-pyridin-2-yloxy]-quinolin-2-ylmethyl}-piperazin-1-yl)-methanone], the IC50 against human LTA4 hydrolase was found to be 8.6 nM; in assay [1], 1200 nM.
On the same counts, the results for `CN(C(=O)CO)[C@H]1CCN(Cc2ccc3cc(Oc4ccc(-c5ccn[nH]5)cn4)ccc3n2)C1` [Example 99] are 0.86 nM and 140 nM.
The corresponding values for `O=C1OCCN1C1CCN(Cc2ccc3cc(Oc4ncc(-c5ccn[nH]5)cn4)ccc3c2)CC1` [Example 33, 3-(1-{6-[5-(2H-Pyrazol-3-yl)-pyrimidin-2-yloxy]-naphthalen-2-ylmethyl}-piperidin-4-yl)-oxazolidin-2-one] are 0.92 nM and 150 nM.
On the same counts, the results for `O[C@@H]1CCN(Cc2ccc3cc(Oc4ncc(-c5ccn[nH]5)cn4)ccc3c2)C1` [Example 45, (R)-1-{6-[5-(2H-Pyrazol-3-yl)-pyrimidin-2-yloxy]-naphthalen-2-ylmethyl}-pyrrolidin-3-ol] are 2.4 nM and 310 nM.
For the molecule `C[C@@H](O)C(=O)N1CC2CCC(C1)N2Cc1ccc2cc(Oc3ccc(-c4ccn[nH]4)cn3)ccc2n1` [Example 59, (R)-2-Hydroxy-1-(8-{6-[5-(2H-pyrazol-3-yl)-pyridin-2-yloxy]-quinolin-2-ylmethyl}-3,8-diaza-bicyclo[3.2.1]oct-3-yl)-propan-1-one], the figures for the IC50 (on human LTA4 hydrolase; in assay [1]) were 0.54 nM and 110 nM, respectively.
The corresponding values for `CN(CCO)Cc1ccc2cc(Oc3ccc(-c4ccn[nH]4)cn3)ccc2c1` [Example 16, 2-(Methyl-{6-[5-(2H-pyrazol-3-yl)-pyridin-2-yloxy]-naphthalen-2-ylmethyl}-amino)-ethanol] are 0.7 nM and 160 nM.
On the same counts, the results for `CN(Cc1ccc2cc(Oc3ccc(-c4ccn[nH]4)cn3)ccc2c1)[C@H]1CCN(C(=O)CO)C1` [Example 23, 2-Hydroxy-1-[(S)-3-(methyl-{6-[5-(2H-pyrazol-3-yl)-pyridin-2-yloxy]-naphthalen-2-ylmethyl}-amino)-pyrrolidin-1-yl]-ethanone] are 0.9 nM and 170 nM.
On the same counts, the results for `O[C@@H]1CCCN(Cc2ccc3cc(Oc4ccc(-c5ccn[nH]5)cn4)ccc3c2)C1` [Example 15, (R)-1-{6-[5-(2H-Pyrazol-3-yl)-pyridin-2-yloxy]-naphthalen-2-ylmethyl}-piperidin-3-ol] are 1 nM and 190 nM.
For the molecule `O=C(N1CCN(Cc2ccc3cc(Oc4ccc(-c5ccn[nH]5)cn4)ccc3n2)CC1)C1(O)CC1` [Example 126, (1-Hydroxy-cyclopropyl)-(4-{6-[5-(2H-pyrazol-3-yl)-pyridin-2-yloxy]-quinolin-2-ylmethyl}-piperazin-1-yl)-methanone], the IC50 on human LTA4 hydrolase stood at 1 nM; in assay [1], 250 nM.
The corresponding values for `OC1CN(Cc2ccc3cc(Oc4ccc(-c5ccn[nH]5)cn4)ccc3c2)C1` [Example 1, 1-{6-[5-(2H-Pyrazol-3-yl)-pyridin-2-yloxy]-naphthalen-2-ylmethyl}-azetidin-3-ol] are 0.43 nM and 140 nM.
For the molecule `COCC(=O)N1CCN(Cc2ccc3cc(Oc4ncc(-c5ccn[nH]5)cn4)ccc3c2)CC1` [Example 24, 2-Methoxy-1-(4-{6-[5-(2H-pyrazol-3-yl)-pyrimidin-2-yloxy]-naphthalen-2-ylmethyl}-piperazin-1-yl)-ethanone], the results for the IC50 (at human LTA4 hydrolase; in assay [1]) were 2 nM and 290 nM, respectively.
On the same counts, the results for `N#CCC(=O)N1CC2CCC(C1)N2Cc1ccc2cc(Oc3ccc(-c4ccn[nH]4)cn3)ccc2n1` [Example 50, 3-Oxo-3-(8-{6-[5-(2H-pyrazol-3-yl)-pyridin-2-yloxy]-quinolin-2-ylmethyl}-3,8-diaza-bicyclo[3.2.1]oct-3-yl)-propionitrile] are 0.69 nM and 170 nM.
On the same counts, the results for `O=C1[C@@H](O)CCN1C1CCN(CCc2coc3cc(Oc4ccc(-c5ccn[nH]5)cn4)ccc23)CC1` [Example 73, (S)-3-Hydroxy-1-[1-(2-{6-[5-(2H-pyrazol-3-yl)-pyridin-2-yloxy]-benzofuran-3-yl}-ethyl)-piperidin-4-yl]-pyrrolidin-2-one] are 0.73 nM and 220 nM.
The corresponding values for `OC1CN(Cc2ccc3cc(Oc4ncc(-c5ccn[nH]5)cn4)ccc3c2)C1` [Example 49, 1-{6-[5-(2H-Pyrazol-3-yl)-pyrimidin-2-yloxy]-naphthalen-2-ylmethyl}-azetidin-3-ol] are 2.2 nM and 210 nM.
On to `N#CCCNCc1ccc2cc(Oc3ccc(-c4ccn[nH]4)cn3)ccc2n1` [Example 43, 3-({6-[5-(2H-Pyrazol-3-yl)-pyridin-2-yloxy]-quinolin-2-ylmethyl}-amino)-propionitrile], for which the 50% inhibitory concentration (IC50) on human LTA4 hydrolase was 2 nM; in assay [1], 680 nM.
On the same counts, the results for `O=C1CCCN1C1CCN(C[C@H]2Cc3ccc(Oc4ccc(-c5ccn[nH]5)cn4)cc3O2)CC1` [Example 63, 1-(1-{(R)-6-[5-(2H-Pyrazol-3-yl)-pyridin-2-yloxy]-2,3-dihydro-benzofuran-2-ylmethyl}-piperidin-4-yl)-pyrrolidin-2-one] are 0.66 nM and 190 nM.
The corresponding values for `CO[C@H](C)C(=O)N1CCN(Cc2cn3cc(Oc4ccc(-c5ccn[nH]5)cc4)ccc3n2)CC1` [Example 80, (R)-2-Methoxy-1-(4-{6-[4-(2H-pyrazol-3-yl)-phenoxy]-imidazo[1,2-a]pyridin-2-ylmethyl}-piperazin-1-yl)-propan-1-one] are 0.85 nM and 200 nM.
The corresponding values for `O[C@@H]1CCN(Cc2ccc3cc(Oc4ccc(-c5ccn[nH]5)cn4)ccc3c2)C1` [Example 6, (R)-1-{6-[5-(2H-Pyrazol-3-yl)-pyridin-2-yloxy]-naphthalen-2-ylmethyl}-pyrrolidin-3-ol] are 0.57 nM and 130 nM.
For the molecule `O=C(C1CCOCC1)N1CCN(Cc2ccc3cc(Oc4ccc(-c5ccn[nH]5)cn4)ccc3n2)CC1` [Example 131, (4-{6-[5-(2H-Pyrazol-3-yl)-pyridin-2-yloxy]-quinolin-2-ylmethyl}-piperazin-1-yl)-(tetrahydro-pyran-4-yl)-methanone], the IC50 was determined as 2.3 nM at human LTA4 hydrolase and 360 nM in assay [1].
